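Compound exposure: 48 hours, 5 concentrations, 96-well plates. GI50 is the concentration that inhibits growth by half. At the TGI there is no net growth.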
What was measured:
Experiment in all cases: DTP human tumour cell line panel, 48 h
SN12C renal = tested on: SN12C renal
TK-10 renal = tested on: TK-10 renal
K-562 leukemia = tested on: K-562 leukemia
SF-539 CNS = tested on: SF-539 CNS
HS 578T breast = tested on: HS 578T breast
U251 CNS = tested on: U251 CNS
786-0 renal = tested on: 786-0 renal
SW-620 colon = tested on: SW-620 colon
EKVX NSCLC = tested on: EKVX NSCLC
SK-MEL-28 melanoma = tested on: SK-MEL-28 melanoma

Row | Structure (SMILES) | TGI (SN12C renal) [µM] | TGI (TK-10 renal) [µM] | TGI (K-562 leukemia) [µM] | TGI (SF-539 CNS) [µM] | TGI (HS 578T breast) [µM] | TGI (U251 CNS) [µM] | TGI (786-0 renal) [µM] | TGI (SW-620 colon) [µM] | TGI (EKVX NSCLC) [µM] | TGI (SK-MEL-28 melanoma) [µM] | GI50 (SN12C renal) [µM] | GI50 (SK-MEL-28 melanoma) [µM] | GI50 (TK-10 renal) [µM] | GI50 (K-562 leukemia) [µM] | GI50 (SF-539 CNS) [µM] | GI50 (HS 578T breast) [µM] | GI50 (U251 CNS) [µM] | GI50 (SW-620 colon) [µM] | GI50 (EKVX NSCLC) [µM]
1 | CC(C)(C)OC(=O)n1cc(C2CNC(=O)C23CCC(=O)N3Cc2ccccc2)c2ccccc21 (centres undefined) | 32.4 | 44.4 | > 100 | 38.4 | 86.5 | 37.3 | 44.8 | > 100 | 54.6 |  |  |  |  |  |  |  |  |  | 
2 | Cc1cc2c(cc1Cl)Sc1nnc(Nc3ccccc3)n1S2(=O)=O |  | 43.6 | > 100 | 14.2 | 12.6 | 19.1 | 19.1 | > 100 | 34.3 | 70.9 |  |  |  |  |  |  |  |  | 
3 | Cn1ccnc1Sc1ccc(/C=N/NC(=O)c2ccccc2O)cc1[N+](=O)[O-] | > 100 | > 100 |  | > 100 | > 100 | > 100 | > 100 | > 100 | > 100 | > 100 |  |  |  |  |  |  |  |  | 
4 | OC(C1CCC=NN1C(O)(C(F)(F)F)C(F)(F)F)(C(F)(F)F)C(F)(F)F (centres undefined) | > 10 | > 10 | > 10 | > 10 | > 10 | > 10 | > 10 |  | > 10 | > 10 |  |  |  |  |  |  |  |  | 
5 | CC(=O)O[C@H]1CC[C@@]2(C)C(=CC[C@@H]3[C@@H]2CC[C@]2(C)C(c4cccnc4)=CC[C@@H]32)C1 | > 100 | > 100 | > 100 | > 100 | 71.3 | > 100 |  | > 100 | > 100 | > 100 | 17.2 | 3.53 | 29.8 | 4.04 | 3.14 | 3.38 | 4.47 | 5.81 | 4.62
6 | S=C1c2ccccc2NC(=NC2CCCC2)C2CSCN12 (centres undefined) | > 100 | > 100 | > 100 |  | > 100 | > 100 | > 100 | > 100 | > 100 | > 100 |  |  |  |  |  |  |  |  | 
7 | Cn1ccnc1S/C(=C\C=C(C#N)C#N)c1ccc(Cl)cc1 | > 25.7 | 2.81 | 3.41 | 6.58 | 13.6 | 6.85 | 5.21 | 11.9 | 13.1 |  |  |  |  |  |  |  |  |  | 
8 | Brc1ccc(N=NN2CCCCC2)cc1 | > 100 | > 100 | > 100 | > 100 | > 100 | > 100 | > 100 | > 100 | > 100 |  |  |  |  |  |  |  |  |  | 
9 | CC(C)(CO)CNc1cc(=O)[nH]c(N)n1 | > 100 |  | > 100 |  | > 100 | > 100 | > 100 | > 100 | > 100 | > 100 |  |  |  |  |  |  |  |  | 
10 | O=[N+]([O-])c1cccc(-c2csc(N=Nc3c(O)[nH]c4ccccc34)n2)c1 | 49.7 | 33.9 |  | 68 | 45.7 | 40.4 | 29.8 | > 100 | 61.8 | 36.1 |  |  |  |  |  |  |  |  | 
11 | COc1ccc(N2C=Nn3c(nc4sc(C)c(C)c4c3=O)C2)cc1 | > 100 | > 100 | > 100 |  | > 100 | > 100 | > 100 | > 100 | > 100 | > 100 |  |  |  |  |  |  |  |  | 
12 | CCOC(=O)/C(=C\NCC(O)c1ccccc1)c1nc2ccccc2[nH]1 (centres undefined) | > 100 | > 100 | 59.6 | 47.8 | 39.5 |  | > 100 | > 100 | 91.5 | 39.6 |  |  |  |  |  |  |  |  | 
13 | CCN(CC)Cc1nc2sc3c(c2c(=O)n1-c1ccccc1)CCCC3 | 37.8 | 30.9 | > 100 |  | 93.6 | 31.3 | 32.2 | 37.3 | 79.9 | > 100 |  |  |  |  |  |  |  |  | 
14 | Cc1cn(C2CC(n3cc(Cn4cc(F)c(=O)[nH]c4=O)nn3)C(CO)O2)c(=O)[nH]c1=O (centres undefined) | > 100 | > 100 |  | > 100 | > 100 | > 100 | > 100 | > 100 | > 100 | > 100 |  |  |  |  |  |  |  |  | 
15 | Cc1ccc(N=Nc2c(C)nn(C(=O)CC(=O)Nc3ccccc3)c2C)cc1C | > 100 | > 100 |  | > 100 | > 100 | > 100 | > 100 | > 100 | > 100 | > 100 |  |  |  |  |  |  |  |  | 
16 | COC(=O)CCCc1ccc2c(c1)CC1(C2)Cc2cc3c(cc2C1)CCCC3 | > 100 | > 100 | 52.5 | > 100 | 90.9 | > 100 | > 100 |  | > 100 |  |  |  |  |  |  |  |  |  | 
17 | CCOC(C[Se]CC(OCC)OCC)OCC |  | > 100 | > 100 | 62.4 | 45.9 | 38.4 | > 100 | > 100 | > 100 | > 100 |  |  |  |  |  |  |  |  | 
18 | CCCC/C=C1\CCC(CN2CCCCC2)C1=O (centres undefined) | 25.9 | 28.1 | 22.8 | 36.1 | > 100 | 44.1 |  | 14.4 | 31.9 | 36.7 |  |  |  |  |  |  |  |  | 

— PubChem BioAssay (NCI)
